# In US6133302A, “5-(3-Phenyl-3-oxo-propyl)-1H-tetrazole derivatives” (Pharmacia & Upjohn SpA, priority 1997, dated 2000):
# Target: T1, kynurenine-3-hydroxylase (Rattus norvegicus, UniProt O88867)
# T1 construct: Rat liver mitochondrial extract was used as enzymatic preparation for this assay; from tissue; host or cells: rat liver mitochondrial extract
# Assay: KYN-3-OH inhibition; kynurenine 3-hydroxylase assay based on enzymatic synthesis of tritiated water in rat liver mitochondrial extract
# Type: biochemical
# Conditions: 37° C., 30 min, pH 8.1, 0.025 mM L-Kynurenine, 0.8 mM NADPH
# Protocol: The assay for kynurenine 3-hydroxylase is based on the enzymatic synthesis of tritiated water during the hydroxylation reaction. Radiolabeled water was quantified following selective adsorption of the isotopic substrate and its metabolite with activated charcoal.
# Rat liver mitochondrial extract was used as enzymatic preparation for this assay.
# The assay for kynurenine 3-hydroxylase activity was carried out at 37° C. for a time of 30 min. The reaction mixture having a total volume of […] was constituted of 44 mg of suspended extract, 100 mM Tris/Cl^- buffer pH 8.1, 10 mM EDTA, 100 mM KCl, 0.8 mM NADPH, 0.025 mM L-Kynurenine, 0.5 mCi L-(3,5-^3 H)Kynurenine (10 Ci/mmol) and […] of different concentration of inhibitor solutions. After the incubation, the reaction was terminated by adding 1 ml of 7.5% (W/v) activated charcoal, vortexed and centrifuged for 7 min.
# A […] aliquot of supernatant was counted by scintillation spectroscopy in 5 ml of liquid scintillation.
# T1 sequence (O88867 whole entry): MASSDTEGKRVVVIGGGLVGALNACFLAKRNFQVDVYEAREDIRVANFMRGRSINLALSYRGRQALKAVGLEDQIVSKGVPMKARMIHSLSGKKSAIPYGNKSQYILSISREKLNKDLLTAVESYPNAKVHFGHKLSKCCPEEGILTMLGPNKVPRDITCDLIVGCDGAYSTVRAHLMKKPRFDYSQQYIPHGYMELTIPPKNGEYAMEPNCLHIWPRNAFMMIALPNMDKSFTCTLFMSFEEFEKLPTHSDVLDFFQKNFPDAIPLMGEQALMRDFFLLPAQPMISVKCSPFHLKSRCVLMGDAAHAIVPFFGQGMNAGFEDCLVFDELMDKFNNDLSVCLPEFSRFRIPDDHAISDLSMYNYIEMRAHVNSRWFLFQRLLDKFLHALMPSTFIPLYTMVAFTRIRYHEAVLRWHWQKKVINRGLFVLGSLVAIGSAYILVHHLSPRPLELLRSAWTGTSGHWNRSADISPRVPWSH
structure (smiles),measurement,value
"O=C(CC(Cc1ccccc1)c1nnn[nH]1)c1ccc(Cl)c(Cl)c1 (stereo not shown) [PNU-168778, 5-[1-benzyl-3-(3,4-dichlorophenyl)-3-oxo-propyl]-1H-tetrazole]",IC50,2320 nM
